Broadly, the IC50 is the concentration needed to halve the response being measured. Low values mean higher potency, high ones lower potency.

In brackets after ≈: the same amount, converted by molar mass.

Data on 50 compounds can be found in patent US5721246A, “Heterobicyclic sulfonamide and sulfonic ester derivatives” (Eisai Co., Ltd., priority 1993, dated 1998).

For the test, the system named is colon 38 cells. In words: In vitro antitumor test against colon 38 cells (MTT). The conditions noted are these: 72 h, concentration at which 50% of mouse colon 38 cells are inhibited, 3 days. In kind it is cell-based. Here is the method: In vitro Antitumor Test Against Colon 38 Cells (Mouse Colon Cancer Cells)
2.5×10^3 (0.1 ml) of colon 38 cells suspended in RPMI1640 medium (a product of Sanko Junyaku) containing 10% of fetal bovine serum, penicillin (100 units/ml), streptomycin (100 μg/ml), mercaptoethanol (5×10^-5 M) and sodium pyruvate (1 mM) were inoculated in each well of a 96-well flat-bottomed microplate, and cultured in an incubator containing 5% of carbon dioxide at 37° C. for one day.
A test compound according to the present invention was dissolved in dimethyl sulfoxide in a concentration of 20 mg/ml and the resulting solution was diluted with 10% fetal bovine serum/RPMI1640 medium to a concentration of 200 μg/ml. The resulting solution was diluted with 10% fetal bovine serum/RPMI1640 medium to prepare 3-fold serial dilutions with the maximum concentration being 200 μg/ml. The obtained dilutions were each poured into the well of the above-described culture plate in an amount of 0.1 ml. The resulting plate was cultured at 37° C. in an incubator containing 5% of carbon dioxide for 3 days.
Thereafter, a solution of MTT[3-(4,5-dimethylthiazol-2-yl)-2,5-diphenyltetrazolium bromide] (having a concentration of 3.3 mg/ml) was added to each well in an amount of 0.05 ml. The resulting mixtures were further incubated for 2 hours. The supernatant was removed from each well by suction. Formed formazan was dissolved in 0.1 ml of dimethyl sulfoxide. The absorbance at 540 nm was determined with a microplate reader and the absorbance was taken as an index of the number of viable cells. The inhibitory ratio of the test compound was calculated according to the following formula to determine the IC50 of the test compound, with the IC50 referring to the concentration at which 50% of mouse colon 38 cells are inhibited: [formula] T: absorbance of well containing a test compound C: absorbance of well containing no test compound
On to `CN(CCc1ccc(S(=O)(=O)Nc2cccc3c(Cl)c[nH]c23)cc1)S(C)(=O)=O` [Example 81], for which the IC50 stood at 0.25 µg/mL (≈ 0.566 µM). Compound `COC(=O)Nc1ccc(S(=O)(=O)Nc2cccc3c(Cl)c[nH]c23)cc1` [Example 41] yielded an IC50 of 0.57 µg/mL (≈ 1.5 µM). This IC50 is about 2.3-fold higher than that of the compound before. Next, `O=S(=O)(Nc1cccc2c(Cl)c[nH]c12)c1ccc(NC2CC2)nc1` [Example 59]: 0.54 µg/mL (≈ 1.49 µM); `Cc1c(Cl)cccc1S(=O)(=O)Nc1cccc2c(C#N)c[nH]c12` [Example 45]: 0.44 µg/mL (≈ 1.27 µM); `N#Cc1c[nH]c2c(NS(=O)(=O)c3ccc(Br)cn3)cccc12` [Example 65]: 0.2 µg/mL (≈ 0.53 µM).

In turn, `N#Cc1c[nH]c2c(NS(=O)(=O)c3ccc(Cl)s3)cccc12` [Example 40] had an IC50 of 0.27 µg/mL (≈ 0.799 µM). In turn, `CONS(=O)(=O)c1ccc(S(=O)(=O)Nc2cccc3c(Cl)c[nH]c23)cc1` [Example 43] gave an IC50 of 0.47 µg/mL (≈ 1.13 µM).

Regarding `O=S(=O)(Nc1cccc2c(Cl)c[nH]c12)c1ccc(Cl)nc1` [Example 14], the 50% inhibitory concentration (IC50) is 0.23 µg/mL (≈ 0.672 µM). On to `NC(=S)c1ccc(S(=O)(=O)Nc2cccc3c(Cl)c[nH]c23)cc1` [Example 64], for which the midpoint of inhibition, the IC50, lay at 0.23 µg/mL (≈ 0.629 µM).

Compound `CNS(=O)(=O)c1ccc(S(=O)(=O)Nc2cccc3c(Cl)c[nH]c23)cc1` [Example 61] registered an IC50 of 0.24 µg/mL (≈ 0.6 µM). Compound `C[S+]([O-])Cc1ccc(S(=O)(=O)Nc2cccc3c(Cl)c[nH]c23)cc1` (centres unmarked) [Example 34] returned an IC50 of 0.14 µg/mL (≈ 0.366 µM). Against the preceding compound, the IC50 is about 1.7-fold lower. `O=S(=O)(Nc1cccc2c(Cl)c[nH]c12)c1cccc(Cl)c1` [Example 7] registered an IC50 of 0.22 µg/mL (≈ 0.645 µM).

The compound `CS(=O)(=O)CCc1ccc(S(=O)(=O)Nc2cccc3c(C#N)c[nH]c23)cc1` [Example 78] registered an IC50 of 0.26 µg/mL (≈ 0.644 µM). In turn, `Cc1ccc(NS(=O)(=O)c2ccc(N)cc2)c2[nH]cc(Cl)c12` [Example 27] had an IC50 of 0.1 µg/mL (≈ 0.298 µM). This IC50 lies about 2.6-fold lower than the previous one. Compound `CCS(=O)(=O)Nc1ccc(S(=O)(=O)Nc2cccc3c(Cl)c[nH]c23)cc1` [Example 70] registered an IC50 of 0.42 µg/mL (≈ 1.01 µM). Against the preceding compound, the IC50 is about 4.2-fold higher. In turn, `NS(=O)(=O)Cc1ccc(S(=O)(=O)Nc2cccc3c(Cl)c[nH]c23)cc1` [Example 63] had an IC50 of 0.12 µg/mL (≈ 0.3 µM). `CC(=O)Nc1ccc(S(=O)(=O)Nc2cccc3c(Cl)c[nH]c23)cc1Cl` [Example 38] had an IC50 of 0.57 µg/mL (≈ 1.43 µM). As for `CS(=O)(=O)NCCc1ccc(S(=O)(=O)Nc2cccc3c(Cl)c[nH]c23)cc1` [Example 62], the IC50 is 0.18 µg/mL (≈ 0.421 µM). `NS(=O)(=O)Cc1ccc(S(=O)(=O)Nc2ccc(Cl)c3c(Cl)c[nH]c23)cc1` [Example 77]: the half-maximal inhibitory concentration (IC50) worked out at 0.17 µg/mL (≈ 0.391 µM). The figure for `O=S(=O)(Nc1cccc2c(Cl)c[nH]c12)c1ccc(O)nc1` [Example 80] is 0.19 µg/mL (≈ 0.587 µM); for `Cc1cncc(S(=O)(=O)Nc2cccc3c(C#N)c[nH]c23)c1` [Example 60] it is 0.08 µg/mL (≈ 0.256 µM); for `CC(=O)c1c[nH]c2c(NS(=O)(=O)c3cccc(Cl)c3)cccc12` [Example 67] it is 0.87 µg/mL (≈ 2.49 µM). Compound `O=S(=O)(Nc1cccc2c(Cl)c[nH]c12)c1ccc(S(=O)(=O)N2CCCC2)cc1` [Example 54] returned an IC50 of 0.51 µg/mL (≈ 1.16 µM). Against the preceding compound, the IC50 is about 1.7-fold lower. `N#CCCNc1ccc(S(=O)(=O)Nc2cccc3c(Cl)c[nH]c23)cn1` [Example 71] gave an IC50 of 0.23 µg/mL (≈ 0.612 µM). As to `N#Cc1c[nH]c2c(NS(=O)(=O)c3ccc(N)cc3)cc(Br)cc12` [Example 68], the IC50 came out at 0.57 µg/mL (≈ 1.46 µM). Take `Cc1c[nH]c2c(NS(=O)(=O)c3ccc(S(C)(=O)=O)cc3)cccc12` [Example 50]: half-maximal inhibition (IC50) was put at 0.22 µg/mL (≈ 0.604 µM). Compound `CSCc1ccc(S(=O)(=O)Nc2cccc3c(Cl)c[nH]c23)cc1` [Example 15] returned an IC50 of 0.35 µg/mL (≈ 0.954 µM). Compared with the last compound, the IC50 is about 1.6-fold higher. Next, `Cn1cnc(S(=O)(=O)Nc2cccc3c(C#N)c[nH]c23)c1` [Example 55]: 0.59 µg/mL (≈ 1.96 µM); `NS(=O)(=O)CCc1ccc(S(=O)(=O)Nc2cccc3c(Cl)c[nH]c23)cc1` [Example 35]: 0.14 µg/mL (≈ 0.338 µM). The figure for `COc1ccc(S(=O)(=O)Nc2cccc3cn[nH]c23)cc1` [Example 13] is 0.63 µg/mL (≈ 2.08 µM); for `CN(c1ccc(S(=O)(=O)Nc2cccc3c(Cl)c[nH]c23)cc1)S(C)(=O)=O` [Example 52] it is 0.14 µg/mL (≈ 0.338 µM); for `CN(Cc1ccc(S(=O)(=O)Nc2cccc3c(Cl)c[nH]c23)cc1)S(C)(=O)=O` [Example 83] it is 0.27 µg/mL (≈ 0.631 µM). The figure for `N#Cc1ccc(NS(=O)(=O)c2ccc(N)cc2)c2[nH]cc(Cl)c12` [Example 32] is 0.17 µg/mL (≈ 0.49 µM); for `CC(=O)N(C)c1ccc(S(=O)(=O)Nc2cccc3c(Cl)c[nH]c23)cc1` [Example 79] it is 0.09 µg/mL (≈ 0.238 µM). On to `C[S+]([O-])c1ccc(S(=O)(=O)Nc2cccc3c(Cl)c[nH]c23)cc1` (centres unmarked) [Example 24], for which the IC50 worked out at 0.09 µg/mL (≈ 0.244 µM).

The compound `CN(C)S(=O)(=O)c1ccc(S(=O)(=O)Nc2cccc3c(Cl)c[nH]c23)cc1` [Example 74] came in with an IC50 of 0.36 µg/mL (≈ 0.87 µM). Next, `N#Cc1c[nH]c2c(NS(=O)(=O)c3ccco3)cccc12` [Example 48]: 0.23 µg/mL (≈ 0.801 µM); `CSc1ccc(S(=O)(=O)Nc2cccc3c(Cl)c[nH]c23)cc1` [Example 22]: 0.69 µg/mL (≈ 1.96 µM). The figure for `O=S(=O)(Nc1cccc2c(Cl)c[nH]c12)c1ccc(S)nc1` [Example 57] is 0.66 µg/mL (≈ 1.94 µM); for `CN(C)S(=O)(=O)Nc1ccc(S(=O)(=O)Nc2cccc3c(Cl)c[nH]c23)cc1` [Example 49] it is 0.32 µg/mL (≈ 0.746 µM). The figure for `N#Cc1cccc(S(=O)(=O)Nc2cccc3c(C#N)c[nH]c23)c1` [Example 51] is 0.09 µg/mL (≈ 0.279 µM). The compound `O=S(=O)(Nc1cccc2c(Cl)c[nH]c12)c1ccc(NCCO)nc1` [Example 56] had an IC50 of 0.2 µg/mL (≈ 0.545 µM). As for `CCNS(=O)(=O)c1ccc(S(=O)(=O)Nc2cccc3c(Cl)c[nH]c23)cc1` [Example 69], the IC50 is 0.47 µg/mL (≈ 1.14 µM). Compared with the last compound, the IC50 is about 2.3-fold higher. The figure for `Nc1ccc(S(=O)(=O)Nc2ccc(Cl)c3c(Cl)c[nH]c23)cc1` [Example 8] is 0.09 µg/mL (≈ 0.253 µM); for `N#Cc1c[nH]c2c(NS(=O)(=O)c3ccc(Cl)nc3)cccc12` [Example 18] it is 0.11 µg/mL (≈ 0.331 µM). In turn, `O=C(c1ccc(S(=O)(=O)Nc2cccc3c(Cl)c[nH]c23)cc1)N1CCCC1` [Example 75] registered an IC50 of 0.28 µg/mL (≈ 0.693 µM). On to `CC(=O)Nc1ccc(S(=O)(=O)Nc2ccc(C)c3c(Cl)c[nH]c23)cc1` [Example 26], for which the half-inhibitory concentration (IC50) stood at 0.17 µg/mL (≈ 0.45 µM).

In turn, `CS(=O)(=O)CCc1ccc(S(=O)(=O)Nc2cccc3c(Cl)c[nH]c23)cc1` [Example 36] came in with an IC50 of 0.11 µg/mL (≈ 0.266 µM). This IC50 lies about 1.5-fold lower than the previous one.

In the case of `CN(C)CCNc1ccc(S(=O)(=O)Nc2cccc3c(Cl)c[nH]c23)cn1` [Example 47], it took 0.22 µg/mL (≈ 0.559 µM) to reach half-maximal inhibition (IC50). The figure for `O=[N+]([O-])c1ccc(S(=O)(=O)Nc2cccc3c(Cl)c[nH]c23)cc1` [Example 2] is 0.54 µg/mL (≈ 1.54 µM).
